Test system: Alternaria brassicicola
Assay: Test of Preventive Effect on Japanese Radish Alternaria Leaf Spot
Format: in vivo
Conditions: Japanese radish (cultivar: Wase 40-nichi), foliage application 500 ppm, 1 day high humidity at 24° C. plus 3 days greenhouse
Description: The controlling effect was evaluated by visually observing the area of lesion spots on each of test plants at the time of investigation and comparing the area of lesion spots on a plant treated with the present compound with that on an untreated plant.
Test of Preventive Effect on Japanese Radish Alternaria Leaf Spot (Alternaria brassicicola)
Each of plastic pots was filled with sandy loam and sown with Japanese radish (cultivar: Wase 40-nichi), followed by growing in a greenhouse for 5 days. Each of the present compounds 1-19, 21-40 and 41 was formulated into a flowable formulation according to Formulation Example 6. The flowable formulation was diluted to a predetermined concentration (500 ppm) with water, and foliage application of the dilution was carried out so that the dilution adhered sufficiently to the surfaces of leaves of the Japanese radish. After the foliage application, the plant was air-dried and then inoculated by spraying a water suspension of spores of Alternaria brassicicola. After the inoculation, the plant was held under high humidity conditions at 24° C. for 1 day and held in a greenhouse for 3 days, and then the area of lesion spots was investigated.

How did the “area of lesion spots on the treated plant relative to that on an untreated plant” value turn out when C#CCOc1c(F)cc(C(=O)NCC2=CCCCC2)cc1F [compound 18] was run?
Its value is at most 30%.

From patent publication US20100105647A1 (priority 2007, published 2010)
